Experimental data from patent US10064858B2, “Methods and compositions for treating bacterial infections with iron chelators” (THE UNITED STATES OF AMERICA, AS REPRESENTED BY THE …, priority 2011, dated 2018).
Converted amounts (≈) assume the structure as drawn. “Also recorded” adds a separate entry of the source. Read-outs that look alike come from different tables or passages of the source.

Legend:
[1] = system: WBA 2090 E. faecilium; assay: MIC, similar assays; format: cell-based
Experimental: (§1) Individual MICs were determined following the microdilution method recommended by CLSI in cationic-adjusted Mueller-Hinton Broth (CAMHB), or M9 media. […] Tests were performed in triplicate. MIC of iron chelators were determined for noscomial ESKAPE pathogens.

[2] = system: S. aureus; assay: MIC in RPMI1640 media (Table 2); format: cell-based; conditions: Staphylococcus aureus
Experimental: as §1
This media is closer to the iron levels in the human body. MICs are in ug/mL.

[3] = system: Bioluminescent AB0057; assay: Bioluminescent AB0057 challenged with iron chelators; format: cell-based, Acinetobacter baumannii; conditions: 100 μm; 4 hours; low iron media
Excerpt: This example studies bioluminescent A. baumannii challenged with iron chelators. AB0057 is a strain of Acinetobacter baumannii available from Robert Bonomo, Case Western Reserve University, Cleveland, Ohio.
As a precursor to conducting this in vitro assay, AB0057 was transformed with a bioluminescent plasmid. The p16Slux plasmid is illustrated in FIG. 38, and further details regarding its development and use are set forth in Christian U. Riedel et al., “Construction of p16Slux, a Novel Vector for Improved Bioluminescent Labeling of Gram-Negative Bacteria,” Appl. Environ. Microbiol. 2007 November; 73(21): 7092-7095.
Bioluminescent AB0057 were grown overnight in LB media and sub-cultured into low iron media in a 96-well plate containing varying concentrations of iron chelators for 4 hours. Bacterial growth was measured by bioluminescence (relative light units). The iron chelators VK28 and DFO were tested along with chelators DIP, ETTA, and EDTA as controls. The chelators were tested a concentrations of 0 μM, […], 3.13 μM, 6.25 μM, 12.5 μM, 25 μM, 50 μM, and 100 μM.

[4] = system: five clinical isolates of A. baumannii and AB19606; assay: Growth (OD600) of six A. baumannii strains with VK28 in low-iron M9 media; format: cell-based; conditions: 200 μM VK28 after 4 hr of growth, 24 hr
Experimental: Five clinical isolates of A. baumannii were obtained from Walter Reed Army Medical Center (WRAMC) and compared to the laboratory strain AB19606 from the ATCC. Strains were challenged with either 0 μM or 200 μM VK28 in low-iron M9 media after 4 hr of growth. Growth was estimated by absorbance at 600 nm every 4 hr for 24 hr. Dashed lines represent the same strains treated with 200 μM VK28.

[5] = system: AB5075 (MRSN959); assay: Infected punch biopsy wound in mice, topical treatment; format: in vivo
Excerpt: This example provides an in vivo evaluation of the effectiveness of VK28 in treating a bacterial infection. Mice were wounded with 6 mm punch biopsy and infected with AB5075 (MRSN959) and treated daily for 14 days with poloxamer F-127 gel alone as a control composition (FIG. 11A) or F-127 gel containing 5% VK28 (as a topical composition containing an iron chelator).

[6] = system: Klebsiella pneumonia; assay: Growth (OD600) with VK28 in M9 media with magnesium / calcium; format: cell-based; conditions: 50-200 μg/ml VK28, 24 hours
Experimental: Klebsiella pneumonia was grown in M9 media containing 2 mM MgSO4 for 24 hours in the presence of 0 μg/ml, 50 μg/ml, 100 μg/ml, or 200 μg/ml VK28. The OD600 was measured at 0, 4, and 24 hour and the results are shown in the time-kill curves of FIG. 16.
Klebsiella pneumonia was grown similar to as described in Example 19 in M9 media containing 2 mM MgSO4 and 1.34 mM CaCl2 for 24 hours in the presence of 0 μg/ml, 50 μg/ml, 100 μg/ml, or 200 μg/ml VK28. The OD600 was measured at 24 hour and the results are shown in the bar graph of FIG. 17.

[7] = system: Pseudomonas aeruginosa; assay: as above; format: cell-based; conditions: 24 hours
Experimental: Pseudomonas aeruginosa was grown similar to as described in Example 21 in M9 media containing 2 mM MgSO4 for 24 hours in the presence of 0 μg/ml, 50 μg/ml, 100 μg/ml, or 200 μg/ml VK28. The OD600 was measured at 0, 4, and 24 hour and the results are shown in the time-kill curves of FIG. 20.
In this example, strains of MR Staphylococcus aureus (MRSA), Acinetobacter baumannii (Acinetobacter), Escherichia coli (E. coli), and Pseudomonas aeruginosa (Pseudomonas) were grown in M9 media in the presence of 2 mM MgSO4 and 1.35 mM CaCl2 for 24 hours in the presence or absence of 0 μg/ml, 50 μg/ml, 100 μg/ml, or 200 μg/ml of VK28. The OD600 was measured at 24 hour and the results are shown in the bar graph of FIG. 21.

[8] = Maximum systemic dose without adverse side-effects, extrapolated; conditions: human; systemic delivery; based on mouse and rat results
Experimental: The iron chelator is employed in an amount effective for the treatment and/or prevention of bacterial infection. The effective dosage seen in vitro is up to 2 mM based on molarity or up to 1 mg/mL. 2 mM or 1 mg/mL is an extremely high dosage for translating into in vivo. Previous experiments by Varinel Inc. have shown toxicity with VK28 at 30 mg/kg in a mouse or 70 mg/kg in a rat when delivered systemically/intravenously. […] Higher doses are suitable for topical administration. The iron chelator can present in an amount that is up to about 10% by weight, alternatively up to about 20% by weight of the topical composition. In some embodiments, the topical composition can comprise about 0.1% to about 20% of at least one iron chelator, alternatively about 1% to about 20%, alternatively about 5% to about 20%, alternatively about 5% to about 10%, and include, but are not limited to, for example, about 1%, about 2%, about 3%, about 4%, about 5%, about 6%, about 7%, about 8%, about 9%, about 10%, about 12%, about 15%, about 20%, and includes percentages and ranges there between and in increments of about 0.1%, about 0.25%, about 0.5%, about 1% and the like. Determination of an effective amount of VK28, or derivative thereof, to employ is well within the skill of one having ordinary skill in the art having knowledge of the teachings set forth herein.

Row | SMILES | MIC [1] | MIC ([2]; ATCC25923, ATCC 25923, read-out: MIC of Iron Chelators) | MIC ([2]; ATCC 43300 (MRSA), read-out: MIC of Iron Chelators) | Bioluminescence (relative light units) [3] | OD600 values (growth) [4] | wound healing ([5]; F-127 gel containing 5% VK28, topical, daily for 14 days, vs gel alone (FIG. 11)) | wound healing ([5]; composition containing 1% VK28, other mice) | wound healing ([5]; composition containing 5% VK28, other mice) | inhibition of growth (OD600) ([6]; M9 with 2 mM MgSO4) | inhibition of growth (OD600) ([6]; M9 with 2 mM MgSO4 and 1.34 mM CaCl2) | inhibition of growth (OD600) ([7]; M9 with 2 mM MgSO4, 50-200 μg/ml VK28) | inhibition of growth (OD600) ([7]; M9 with 2 mM MgSO4 and 1.35 mM CaCl2) | maximum dose without adverse side-effects [8]
1 | Cc1c(O)c(=O)ccn1C [ApoL1, 3-hydroxy-1,2-dimethyl-4(1H)-pyridone] | 600 to 700 µg/mL (≈ 4.31 to 5.03 mM) |  |  |  |  |  |  |  |  |  |  |  | 
2 | OCCN1CCN(Cc2ccc(O)c3ncccc23)CC1 [VK28, 5-(4-(2-hydroxyethyl)piperazin-1-ylmethyl)-8-hydroxyquinoline] |  | 32 µg/mL | 16 µg/mL | especially surprisingly lower | greatly decreases the OD600 values | Healing scab and reduced wound size; also recorded: the wound treated with the control composition did not heal as well as the wound treated with the iron chelator composition | not particularly efficacious | efficacious in promoting wound healing | inhibition of growth is not reduced in the presence of magnesium | inhibition of growth is not reduced in the presence of magnesium and calcium | inhibition of growth of Pseudomonas aeruginosa is not reduced in the presence of magnesium | inhibition of growth of a number of strains of bacteria is not reduced in the presence of magnesium and calcium | approximately 60 mg/kg
